According to US20210161851A1, “COMBINATION THERAPY OF LYMPHOMA” (Deutsches Krebsforschungszentrum, priority 2019, published 2021):

What was measured:
[1] = tested on: primary CD4+ CTCL cells; assay: Cell death assay in primary CD4+ CTCL cells of Sezary patients; assay type: cell-based, human; settings: increasing concentrations, 24 h and 48 h
Protocol: (§1) Seven patients with Sezary syndrome (CTCL stage IV) diagnosed according to WHO-EORTC classification of CTCL and criteria of the international society of cutaneous lymphomas were included in the study. As controls, we investigated blood samples of healthy donors (n=7). Informed consent was obtained from all subjects before inclusion. The study was conducted according to ethical guidelines at our institution and the Helsinki Declaration and was approved by the ethics committee II of the University of Heidelberg.
(§2) ABT-199, ABT-263 and the mouse antibody against human Bcl-2 were obtained from Santa Cruz Biotechnology. DMF and monomethyl fumarate (MMF) were purchased from Sigma-Aldrich. Caspase-3 and cleaved-Caspase-3 antibodies came from Cell Signaling Technology, Ki-67 antibodies from Novacastra. Primary CD4+ T cells were isolated from heparinized whole blood and treated as indicated (Nicolay et al. (2016), Blood 128(6):805-815). Cell lines were obtained from ATCC (HH, J16) or generously donated by Drs. Gniadecki and Pless from Bispebjerg Hospital Copenhagen, Denmark and Dr. Kaltoft, Aarhus University Denmark (SeAx) or Prof. Eichmuiller from DKFZ Heidelberg, Germany (MyLa), and cultured as described (Nikolay et al, ibd.)
(§3) 1.3 Cell Death Assays, Quantitative Reverse Transcript (qRT) PCR, Western Blot were Performed as According to Standard Methods.

[2] = tested on: primary healthy CD4+ T cells; assay: Cell death assay in primary CD4+ cells of healthy donors; assay type: cell-based, human; settings: different concentrations
Protocol: as §1, §2, §3

[3] = tested on: SeAx cells; assay: Cell death assay in CTCL cell line SeAx; assay type: cell-based; settings: different concentrations, 24 h
Description: as §2, §3

[4] = tested on: MyLa cells; assay: Cell death assay in CTCL cell line MyLa; assay type: cell-based
Description: as §2, §3

[5] = tested on: J16 cells; assay: Cell death assay in non-CTCL cell line J16; assay type: cell-based; settings: different concentrations, 24 h
Description: as §2, §3

[6] = tested on: HH cells; assay: Cell death assay in CTCL cell line HH; assay type: cell-based; settings: different concentrations, 24 h
Description: as §2, §3

[7] = tested on: caspase 3 cleavage in SeAx cells; assay: Western blot of caspase 3 cleavage in SeAx cells; assay type: cell-based; settings: 100 or 1000 nM ABT-199, 50 μM DMF
Description: as §2, §3

[8] = tested on: caspase 3 cleavage in HH cells; assay: Western blot of caspase 3 cleavage in HH cells; assay type: cell-based; settings: 100 or 1000 nM ABT-199, 50 μM DMF
Description: as §2, §3

[9] = tested on: Bax/Bak interaction in SeAx cells; assay: Proximity ligation assay (PLA) of Bax/Bak in SeAx cells; assay type: cell-based
Protocol: (§4) In order to determine protein interactions a proximity ligation assay was performed with Duolink® PLA by Sigma-Aldrich as described before (Schroeder et al. (2017), Nat. Publ. Gr. October 2016:1-12). The rabbit antibody against Bak and the mouse antibody against Bax were obtained from Abcam.

[10] = tested on: Bax/Bak interaction in HH cells; assay: Proximity ligation assay (PLA) of Bax/Bak in HH cells; assay type: cell-based
Protocol: as §4

[11] = tested on: SeAx xenograft tumors; assay: Orthotopic SeAx xenograft CTCL mouse model: tumor growth and survival; assay type: in vivo, NSG mice; settings: for tumor growth: ABT-199 100 mg/kg once oral, DMF 30 mg/kg i.p. once daily for 28 days; for overall survival: SeAx xenograft NSG mice; for animals still under follow-up (survival rate): day 30, one day after the end of the treatment phase
Protocol: (§5) All animal experiments were in accordance with the approved guidelines of the local Governmental Committee for Animal Experimentation (RP Karlsruhe, Germany, license G282/15). Mice were maintained at a 12 h light-dark cycle with unrestricted diet and water. Under isoflurane inhalation anesthesia (1-1.5% in O2, 0.5 L/min), 3×10^6 SeAx cells suspended in 30 μl of PBS/Matrigel (1:1, v/v) were injected intradermally (i.d.) into the right flank of 6-7-week-old female NOD SCID gamma (NSG) mice recruited from the Center for Preclinical Research, DKFZ, Heidelberg and kept on Kliba diet 3307 with n=8 mice/group. When tumors reached palpable size (mean of 0.025 cm^3) mice were randomized and treated first as indicated once by oral gavage with ABT-199 dissolved in a vehicle of […], 30% polyethylenglycol 400 and 10% ethanol at a concentration of 100 mg/kg body weight, 10 μl/g mouse or vehicle alone as indicated. One day later, intraperitoneal (i.p.) treatment with DMF once daily for 28 days was started as indicated. The compound, dissolved at 3 mg/ml in 30° C. pre-warmed PBS, was given with 10 μl/g mouse at a dose of 30 mg/kg bodyweight. For control, PBS (10 μl/g mouse) was injected. Tumor volume was measured with a caliper 2-3 times a week and calculated according to the formula: V=(length (mm)×width (mm)^2)/2. Necropsies were taken when one tumor diameter reached 1.5 cm or when mice reached stop criterion of the German Society of Laboratory Animal Sciences (GV-SOLAS), here defined as survival. For tissue staining, the liver and a quarter of the tumor was fixed in 4% PBS-buffered formaldehyde and embedded into paraffin according to routine procedures.

[12] = tested on: SeAx xenograft tumors; assay: Histology and immunohistochemistry of SeAx xenograft tumors; assay type: in vivo, NSG mice; settings: for Ki-67 positivity (proliferation index) / caspase 3 cleavage within the xenograft tumors: immunohistochemistry, 400×
Protocol: as §5
Hematoxylin and eosin staining as well as immunohistochemistry were performed on 5 μm paraffin sections as described. For immunohistochemical stainings, paraffin-embedded tissue was sectioned into 5 μm slices. Ki-67 was detected in deparaffinized tissue specimens after antigen retrieval (20 min at boiling temperature in 10 mM sodium citrate pH 6.0), block of endogenous peroxidases in 3% H2O2 in PBS for 10 min, block in 100% goat serum for 1 h at room temperature (RT) and incubation overnight at 4° C. in a 1:250 dilution of anti-Ki-67 antibodies (NCL-Ki67p, Novacastra). Slides were incubated with appropriate horse-radish peroxidase (HRP)-coupled secondary antibody (1:200) for 1 h at RT, incubated with HRP substrate solution (DAB/H2O2, Sigma, Munich/Germany). Nuclei were counterstained with hematoxylin for 1 min. Mounting was in Eukitt (R. Langenbrinck, Teningen/Germany). Sections incubated without primary antibody were included as negative controls.
Immunohistochemical assessment of the tissue slides was performed by a dermatologist (JPN) and a pathologist (TA).
For microscopy, the following Nikon objective lenses were used (Nikon, Tokio, Japan): Nikon Plan Apoλ 2×/0.1, Nikon Plan Apoλ 20×/0.75. Microscopy was performed at 22° C. throughout with cryopreserved or paraffin sections. As fluorochromes phycoerythrin (PE), fluorescein-isothiocyanate (FITC) and DAPI were used for red, green and blue stainings, respectively. The micrographs were taken with a Nikon DS-Fi2 camera using the Nikon DS-L3 software.

[13] = target: Bcl-xL (Homo sapiens, UniProt Q07817); settings: inhibition of Bcl-xL; cited from earlier work
Sequence of Bcl-xL (Q07817 whole entry, species assumed): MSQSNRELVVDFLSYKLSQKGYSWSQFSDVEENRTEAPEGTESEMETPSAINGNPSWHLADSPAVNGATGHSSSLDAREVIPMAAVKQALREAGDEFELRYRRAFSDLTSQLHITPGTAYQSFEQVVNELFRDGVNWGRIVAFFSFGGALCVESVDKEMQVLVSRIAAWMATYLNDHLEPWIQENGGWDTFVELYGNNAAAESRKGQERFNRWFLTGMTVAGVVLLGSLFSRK

[14] = tested on: Bcl-2; assay: Western blot of Bcl-2 family protein levels upon NFκB inhibition; assay type: cell-based, human; settings: J16, HH and SeAx cells
Description: as §2, §3

SMILES	specific cell death [1]	cell death effect [2]	cell death sensitivity [3]	cell death sensitivity [4]	cell death sensitivity [5]	cell death response [6]	caspase 3 cleavage [7]	caspase 3 cleavage [8]	green fluorescence (Bax/Bak interaction, PLA) [9]	Bax/Bak interaction (PLA) [10]	tumor growth [11]	overall survival [11]	animals still under follow-up (survival rate) [11]	animals dropped out of the group ([11]; within the first 10 days after monotreatment, ABT-199 100 mg/kg once by oral gavage, n=8)	Ki-67 positivity (proliferation index) [12]	caspase 3 cleavage within the xenograft tumors [12]	number of circulating platelets [13]	protein levels of Bcl-2 or other anti-apoptotic Bcl-2 family members like Mcl-1 [14]	mitotic activity (mitosis figures in H&E specimens) ([12]; 200× magnification)
CC1(C)CCC(CN2CCN(c3ccc(C(=O)NS(=O)(=O)c4ccc(NCC5CCOCC5)c([N+](=O)[O-])c4)c(Oc4cnc5[nH]ccc5c4)c3)CC2)=C(c2ccc(Cl)cc2)C1 [ABT-199, 4-[4-[[2-(4-chlorophenyl)-4,4-dimethyl-1-cyclohexen-1-yl]methyl]-1-piperazinyl]-N-[[3-nitro-4-[[(tetrahydro-2H-pyran-4-yl)methyl]amino]phenyl]sulfonyl]-2-(1H-pyrrolo[2,3-b]pyridin-5-yloxy)-Benzamide]	dose-dependent specific CD4+ T cell death after 24 h and 48 h with significantly higher rates in Sezary patients' cells than in those from healthy donors	weak effect	high cell death sensitivity	high cell death sensitivity	by far attenuated cell death sensitivity	barely any response	dose-dependent caspase 3 cleavage	had no effect	significant increase in green fluorescence	had no effect	weak, but not significant decrease in tumor growth	no advantage with respect to survival	0%	3/8	slightly reduced positivity for Ki-67	slightly increased caspase 3 cleavage	–	–	–
CC1(C)CCC(c2ccc(Cl)cc2)=C(CN2CCN(c3ccc(C(=O)NS(=O)(=O)c4ccc(N[C@H](CCN5CCOCC5)CSc5ccccc5)c(S(=O)(=O)C(F)(F)F)c4)cc3)CC2)C1 [ABT-263, (R)-4-(4-((4′-chloro-4,4-dimethyl-3,4,5,6-tetrahydro-[1,1′-biphenyl]-2-yl)methyl)piperazin-1-yl)-N-((4-((4-morpholino-1-(phenylthio)butan-2-yl)amino)-3-((trifluoromethyl)sulfonyl)phenyl)sulfonyl)benzamide]	dose-dependent specific CD4+ T cell death after 24 h and 48 h with significantly higher rates in Sezary patients' cells than in those from healthy donors	weak effect	high cell death sensitivity	high cell death sensitivity	by far attenuated cell death sensitivity	barely any response	–	–	–	–	–	–	–	–	–	–	concentration-dependent decrease in the number of circulating platelets	–	–
CN(C)CC[C@H](CSc1ccccc1)Nc1ccc(S(=O)(=O)NC(=O)c2ccc(N3CCN(Cc4ccccc4-c4ccc(Cl)cc4)CC3)cc2)cc1[N+](=O)[O-] [ABT-737, 4-[4-[(4′-chloro[1,1′-biphenyl]-2-yl)methyl]-1-piperazinyl]-N-[[4-[[(1R)-3-(dimethylamino)-1-[(phenylthio)methyl]propyl]amino]-3-nitrophenyl]sulfonyl]-Benzamide]	–	–	–	–	–	–	–	–	–	–	–	–	–	–	–	–	concentration-dependent decrease in the number of circulating platelets	–	–
COC(=O)/C=C/C(=O)OC [DMF, Dimethyl (E)-butenedioate]	–	–	–	–	–	–	–	could induce significant caspase 3 cleavage	–	had no effect	weak, but not significant decrease in tumor growth	overall survival benefit	13%	–	slightly reduced positivity for Ki-67	slightly increased caspase 3 cleavage	–	no influence	significant decrease in mitotic activity
